Among the test systems are HT-29; MCF7; SR; HOP-92; NCI-H522; SN12C; Malme-3M; UACC-257; SK-MEL-28; SK-MEL-5; PC-3; SF-268; SF-295; NCI-H23; UACC-62; HCT-15; SK-MEL-2; HL-60; OVCAR-4; HCC 2998.
Holding throughout (experiment): NCI anticancer screen, dose series, 48 h

Structures are written as SMILES.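 Dose response: 5 concentrations. Exposure: 48 h. Format: 96-well plates. Endpoint: linear interpolation; highest concentration if not reached. The concentration for 50% growth inhibition is given as GI50.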 Active and inactive are the calls of the source. No stated cut-off is given here; in the data, active = GI50 up to about 1.1 µM and inactive = higher. Some results are limits rather than exact numbers.

In the case of `CC(NC(=O)CNP(=O)(c1ccccc1)c1ccccc1)C(=O)NC(Cc1ccccc1)C(=O)OCc1ccccc1` (stereo unspecified), the GI50 is 92.9 µM (inactive) in the test on HT-29; 24.6 µM (inactive) with MCF7; 24.9 µM (inactive) in the test on SR; > 100 µM (inactive) in the test on HOP-92; 19.6 µM (inactive) in the test on NCI-H522; 42.7 µM (inactive) in the test with SN12C. In addition, the GI50 in the test with Malme-3M was 60.8 µM (inactive); in the test on UACC-257, > 100 µM (inactive); in the test with SK-MEL-28, 23.8 µM (inactive); with SK-MEL-5, 25.7 µM (inactive); with PC-3 it was 60.7 µM (inactive); in the test with SF-268, 21.6 µM (inactive). The GI50 in the test with SF-295 was 19 µM (inactive); in the test on NCI-H23 it was 37.8 µM (inactive); with UACC-62, 36.3 µM (inactive); with HCT-15 it was over 100 µM; with SK-MEL-2, 51.2 µM (inactive); in the test with HL-60, 28.6 µM (inactive).

As to `COc1cc2nc3n(c(=O)c2cc1OC)CCCCC3`, the GI50 with HT-29, with MCF7, in the test with SR, in the test with HOP-92, in the test on NCI-H522 and with SN12C was > 100 µM (inactive) each time. Moreover, the GI50 in the test on Malme-3M, with OVCAR-4, in the test with UACC-257, in the test on SK-MEL-28, in the test with SK-MEL-5 and in the test with PC-3 was > 100 µM (inactive) each time. Further, the GI50 with SF-268 was > 100 µM (inactive); in the test on SF-295 it was > 100 µM (inactive); in the test with NCI-H23, > 100 µM (inactive); with UACC-62 it was > 100 µM (inactive); in the test on HCT-15, over 100 µM; in the test on SK-MEL-2 it was > 100 µM (inactive). Also, in the test with HL-60, the GI50 is > 100 µM (inactive).

For `O=C(O)c1ccc(Nc2nc3ccc(C(F)(F)F)cc3nc2-c2ccccc2)cc1`, the GI50 is > 10 µM (inactive) in the test on HT-29; 15 µM (inactive) in the test on MCF7; 28.1 µM (inactive) in the test with SR; 28.6 µM (inactive) in the test with NCI-H522; 77.6 µM (inactive) in the test with SN12C; 33.2 µM (inactive) in the test on Malme-3M. In addition, the GI50 is 14.5 µM (inactive) in the test with HCC 2998; 70 µM (inactive) in the test with UACC-257; 37.8 µM (inactive) in the test with SK-MEL-28; 29.2 µM (inactive) in the test on SK-MEL-5; 50.9 µM (inactive) in the test with PC-3; 40.3 µM (inactive) in the test with SF-268. Moreover, the GI50 was 48 µM (inactive) in the test with SF-295; 48 µM (inactive) in the test with NCI-H23; 14.6 µM (inactive) in the test on UACC-62; 18.6 µM in the test on HCT-15; 20.6 µM (inactive) in the test on HL-60.

For `CC(=O)[C@@H]1[C@@H](OC(=O)CCC(C)COC2OC(CO)C(O)C(O)C2O)C[C@H]2[C@@H]3CC=C4C[C@@H](OC5OC(CO)C(OC6OC(C)C(O)C(O)C6O)C(O)C5OC5OC(C)C(O)C(O)C5O)CC[C@]4(C)[C@H]3CC[C@]12C` (stereo partly specified), the GI50 in the test on MCF7 was > 100 µM (inactive); in the test on SR, > 100 µM (inactive); in the test on NCI-H522 it was 35.2 µM (inactive); in the test on SN12C, > 100 µM (inactive); in the test on Malme-3M, 52.5 µM (inactive); in the test on HCC 2998, > 100 µM (inactive). Further, the GI50 with OVCAR-4, in the test with UACC-257, with SK-MEL-28, with SK-MEL-5, with PC-3 and in the test on SF-268 was > 100 µM (inactive) in each case. The GI50 with SF-295, in the test on NCI-H23, in the test with UACC-62 and in the test with SK-MEL-2 was > 100 µM (inactive) throughout.

For `Cc1cc(C)cc(C(=N)c2ccccc2Cc2cccc3ccccc23)c1`, the GI50 in the test on HT-29 is 9.66 µM (inactive); with MCF7, 16.2 µM (inactive); in the test on SR, 14.2 µM (inactive); in the test on HOP-92 it was 13.3 µM (inactive); with NCI-H522, 7.28 µM (inactive); in the test on SN12C, 17.7 µM (inactive). The GI50 is 12.8 µM (inactive) in the test on Malme-3M; 15.8 µM (inactive) in the test with OVCAR-4; 22.2 µM (inactive) in the test with UACC-257; 16.9 µM (inactive) in the test with SK-MEL-28; 16.6 µM (inactive) with SK-MEL-5; 45.8 µM (inactive) in the test on PC-3. In addition, the GI50 with SF-268 was 15.9 µM (inactive); in the test with SF-295 it was 11 µM (inactive); with NCI-H23 it was 15.7 µM (inactive); in the test on UACC-62, 13.9 µM (inactive); in the test with HCT-15 it was 16.1 µM; in the test on SK-MEL-2 it was 37.8 µM (inactive). The GI50 in the test on HL-60 was 13.3 µM (inactive).

In the case of `COc1cc(Br)c(OC)c2c(OC)cc(C)cc12`, the GI50 in the test with HT-29 was 67.8 µM (inactive); in the test with MCF7 it was > 100 µM (inactive); in the test with SR it was 0.731 µM (active); with NCI-H522, > 100 µM (inactive); in the test with SN12C, > 100 µM (inactive); in the test on Malme-3M, > 100 µM (inactive). Also, the GI50 with HCC 2998 was > 100 µM (inactive); with UACC-257 it was > 100 µM (inactive); in the test with SK-MEL-28, > 100 µM (inactive); with PC-3, 44.6 µM (inactive); in the test with SF-268, > 100 µM (inactive); with SF-295, > 100 µM (inactive). The GI50 with NCI-H23 is > 100 µM (inactive); in the test on UACC-62, > 100 µM (inactive); with HCT-15, over 100 µM; in the test with SK-MEL-2, > 100 µM (inactive); in the test on HL-60 it was 14.7 µM (inactive).

Turning to `COC[C@H](Cc1ccccc1)/N=C/c1ccccc1`, the GI50 in the test on HT-29, with MCF7, in the test with SR, with NCI-H522, with SN12C and in the test on Malme-3M was > 100 µM (inactive) in each case. Also, the GI50 in the test on HCC 2998, with OVCAR-4, with UACC-257, in the test on SK-MEL-28, with SK-MEL-5 and with PC-3 was > 100 µM (inactive) each time. Also, the GI50 was > 100 µM (inactive) with SF-268; > 100 µM (inactive) in the test on SF-295; > 100 µM (inactive) in the test on NCI-H23; > 100 µM (inactive) in the test on UACC-62; over 100 µM in the test on HCT-15; > 100 µM (inactive) in the test on SK-MEL-2.

As for `COP1(=O)OCc2cnccc2O1` (stereo unspecified), the GI50 with HT-29, in the test on MCF7, in the test on SR, with NCI-H522, in the test on SN12C and with Malme-3M was > 100 µM (inactive) in each case. In addition, the GI50 in the test on HCC 2998, in the test on OVCAR-4, with UACC-257, with SK-MEL-28, in the test on SK-MEL-5 and in the test with PC-3 was > 100 µM (inactive) each time. In addition, the GI50 with SF-268 was > 100 µM (inactive); in the test with SF-295, > 100 µM (inactive); with NCI-H23 it was > 100 µM (inactive); in the test with UACC-62 it was > 100 µM (inactive); in the test on HCT-15, over 100 µM; in the test with SK-MEL-2, > 100 µM (inactive).

As to `O=C(CNc1cccc([N+](=O)[O-])c1)Nn1c(-c2ccccc2)nc2ccccc2c1=O`, the GI50 with HT-29 is 0.312 µM (active); in the test on MCF7, 0.389 µM (active); with SR it was 0.271 µM (active); in the test on NCI-H522, 0.433 µM (active); in the test with SN12C, 0.508 µM (active); in the test with Malme-3M it was 0.973 µM (active). Further, the GI50 was 1.49 µM (inactive) in the test on HCC 2998; 2.18 µM (inactive) with OVCAR-4; 2.15 µM (inactive) in the test with UACC-257; 0.513 µM (active) in the test with SK-MEL-28; 1.02 µM (active) in the test with SK-MEL-5; 0.543 µM (active) with PC-3. In addition, the GI50 in the test with SF-268 was 1.69 µM (inactive); in the test with SF-295, 1.58 µM (inactive); in the test with NCI-H23, 0.653 µM (active); in the test on UACC-62, 0.212 µM (active); in the test with HCT-15, 0.419 µM; in the test with HL-60 it was 0.422 µM (active).

As to `Cc1cc(/N=C/c2ccc(F)cc2)n(-c2ccccc2)n1`, the GI50 in the test on HT-29 is 48.9 µM (inactive); with MCF7, 46.7 µM (inactive); in the test on SR, 35.4 µM (inactive); in the test on HOP-92 it was 89.1 µM (inactive); in the test with NCI-H522, 39.1 µM (inactive); in the test with SN12C, 57.3 µM (inactive). Also, the GI50 in the test with Malme-3M is 75.5 µM (inactive); in the test on OVCAR-4 it was 75.7 µM (inactive); with UACC-257, 50.1 µM (inactive); with SK-MEL-28, > 100 µM (inactive); in the test on SK-MEL-5, 52.5 µM (inactive); in the test with PC-3, > 100 µM (inactive). Besides, the GI50 was > 100 µM (inactive) in the test on SF-268; 57.5 µM (inactive) in the test with SF-295; 82.2 µM (inactive) in the test with NCI-H23; > 100 µM (inactive) in the test with UACC-62; 48.2 µM with HCT-15; > 100 µM (inactive) with SK-MEL-2. For the same molecule, the GI50 in the test on HL-60 is 30.3 µM (inactive).

On to `CCC(C)N1CN(c2ccccc2)C2(CCN(CCCSc3ccc(F)cc3)CC2)C1=O` (stereo unspecified), for which the GI50 is 2.15 µM (inactive) with HT-29; 3.09 µM (inactive) in the test on MCF7; 3.32 µM (inactive) with SR; 5.97 µM (inactive) in the test with NCI-H522; 3.78 µM (inactive) with SN12C; 4.48 µM (inactive) in the test with Malme-3M. The GI50 in the test with HCC 2998 was 2.04 µM (inactive); in the test with UACC-257 it was 2.74 µM (inactive); in the test with SK-MEL-28, 11.6 µM (inactive); in the test on SK-MEL-5 it was 1.96 µM (inactive); in the test on PC-3, 6.35 µM (inactive); with SF-268 it was 6.75 µM (inactive). Further, the GI50 in the test on SF-295 was 2.35 µM (inactive); in the test with NCI-H23 it was 4.01 µM (inactive); in the test with UACC-62, 5.47 µM (inactive); in the test on HCT-15 it was 1.75 µM; with HL-60, 3.79 µM (inactive).

These data come from ChEMBL document CHEMBL1201862, “PubChem BioAssay data set” (2004).
